{"source": "patent US20220106301A1", "about": "“ACETAMIDO-PHENYLBENZAMIDE DERIVATIVES AND METHODS OF USING THE SAME” (Athenex, Inc., priority 2020, published 2022)", "data": [{"target": "CYP3A4 (Homo sapiens, UniProt P08684)", "sequence (P08684 whole entry)": "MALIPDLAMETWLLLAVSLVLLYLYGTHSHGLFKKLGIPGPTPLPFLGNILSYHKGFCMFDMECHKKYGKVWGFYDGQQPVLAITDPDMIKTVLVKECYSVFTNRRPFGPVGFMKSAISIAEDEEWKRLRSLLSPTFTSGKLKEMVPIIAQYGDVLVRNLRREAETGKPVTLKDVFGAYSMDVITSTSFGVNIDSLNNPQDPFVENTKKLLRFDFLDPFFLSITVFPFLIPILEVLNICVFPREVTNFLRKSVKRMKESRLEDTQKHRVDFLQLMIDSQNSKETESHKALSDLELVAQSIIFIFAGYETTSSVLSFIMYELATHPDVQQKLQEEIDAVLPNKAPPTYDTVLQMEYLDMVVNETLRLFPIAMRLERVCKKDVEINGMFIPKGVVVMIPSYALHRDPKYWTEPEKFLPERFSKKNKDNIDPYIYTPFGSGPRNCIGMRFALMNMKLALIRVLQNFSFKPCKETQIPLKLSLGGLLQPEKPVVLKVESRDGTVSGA", "experiment": "Determination of CYP3A4 inhibitory activity (human liver microsome, Luciferin-IPA)", "details": "CYP3A4 IC50 (nM), 37° C. 11 minutes", "description": "The standard final Compound concentrations were 37, 111, 333, 1000, and 3000 nM. 12.5 μL of the Compound dilutions were transferred to a white 96-well plate. […] 25 μL of the buffer was added to each well. The plates were incubated at 37° C. for 11 minutes. 50 μL of luciferin detection reagent (Promega V9002) was added and the plates were incubated at room temperature for 5 minutes. The plate was read with a luminometer.\nThe dose-response curve and IC50 were obtained by fitting data to nonlinear regression model using GraphPad Prism software (v6.0).", "units": {"IC50": "nM"}, "values": [{"smiles": "COc1cc(NC(=O)c2cc(=O)c3ccccc3o2)c(C(=O)Nc2ccc(CCN(Cc3cccc(-n4ccnc4)c3)CC(C)C)cc2)cc1OC", "note": "[Compound 99]", "IC50": "250 to 500"}, {"smiles": "COc1cc(NC(=O)c2cc(=O)c3ccccc3o2)c(C(=O)Nc2ccc(CCN3CCc4cnccc4C3)cc2)cc1OC", "note": "[Compound 83]", "IC50": "< 100"}, {"smiles": "COc1cc(NC(=O)c2cc(=O)c3ccccc3o2)c(C(=O)Nc2ccc(CCNCc3ccc4c(cnn4C)c3)cc2)cc1OC", "note": "[Compound 139]", "IC50": "> 1000"}, {"smiles": "COc1ccc(CN(CCc2ccc(NC(=O)c3cc(OC)c(OC)cc3NC(=O)c3cc(=O)c4ccccc4o3)cc2)Cc2cccc(-n3ccnc3)c2)cc1C#N", "note": "[Compound 219]", "IC50": "100 to 250"}, {"smiles": "COc1cc(NC(=O)c2cc(=O)c3ccccc3o2)c(C(=O)NCc2ccc(CN(Cc3ccc4c(cnn4C)c3)Cc3ccccc3-n3ccnc3)cc2)cc1OC", "note": "[Compound 232]", "IC50": "< 100"}, {"smiles": "COc1cc(NC(=O)c2cnc3ccccc3n2)c(C(=O)Nc2ccc(CCN(Cc3ccc4cnn(C)c4c3)Cc3ccc4cnn(C)c4c3)cc2)cc1OC", "note": "[Compound 168]", "IC50": "> 1000"}, {"smiles": "COc1cc(NC(=O)c2cc(=O)c3ccccc3o2)c(C(=O)Nc2ccc(CCN(C)Cc3ccc(-c4cncs4)cc3)cc2)cc1OC", "note": "[Compound 118]", "IC50": "250 to 500"}, {"smiles": "CCOc1cncc(CN(CCc2ccc(NC(=O)c3cc(OC)c(OC)cc3NC(=O)c3cnc4ccccc4n3)cc2)Cc2ccc3c(cnn3C)c2)c1", "note": "[Compound 74]", "IC50": "250 to 500"}, {"smiles": "COc1cc(NC(=O)c2cc(=O)c3ccccc3o2)c(C(=O)Nc2ccc(CCN(Cc3cncc(C(C)C)c3)Cc3ccc4c(cnn4C)c3)cc2)cc1OC", "note": "[Compound 253]", "IC50": "500 to 1000"}, {"smiles": "COc1cc(NC(=O)c2cc(=O)c3ccccc3o2)c(C(=O)Nc2ccc(CCN(Cc3cncc(OCC(C)C)c3)Cc3ccc4c(cnn4C)c3)cc2)cc1OC", "note": "[Compound 239]", "IC50": "> 1000"}, {"smiles": "COc1cc(NC(=O)c2cc(=O)c3ccccc3o2)c(C(=O)Nc2ccc(CCN(Cc3cccc(-n4ccnc4)c3)Cc3cccc(-n4ccnc4C)c3)cc2)cc1OC", "note": "[Compound 245]", "IC50": "250 to 500"}, {"smiles": "COc1cc(NC(=O)c2cc(=O)c3ccccc3o2)c(C(=O)Nc2ccc(CCN(Cc3cccnc3)Cc3cnc(-c4ccccc4F)nc3)cc2)cc1OC", "note": "[Compound 229]", "IC50": "250 to 500"}, {"smiles": "COc1cc(NC(=O)c2cc(=O)c3ccccc3o2)c(C(=O)Nc2ccc(CCN(Cc3cccnc3)Cc3ccc4cnn(C)c4c3)cc2)cc1OC", "note": "[Compound 42]", "IC50": "250 to 500"}, {"smiles": "CCN(CCc1ccc(NC(=O)c2cc(OC)c(OC)cc2NC(=O)c2cc(=O)c3ccccc3o2)cc1)Cc1ccc2c(cnn2CC)c1", "note": "[Compound 192]", "IC50": "> 1000"}, {"smiles": "COc1cc(NC(=O)c2cc(=O)c3ccccc3o2)c(C(=O)Nc2ccc(CCN(Cc3ccc4c(cnn4C)c3)Cc3ccncc3F)cc2)cc1OC", "note": "[Compound 47]", "IC50": "250 to 500"}, {"smiles": "CCN(CCc1ccc(NC(=O)c2cc(OC)c(OC)cc2NC(=O)c2cc(=O)c3ccccc3o2)cc1)Cc1cccn1Cc1cccnc1", "note": "[Compound 25]", "IC50": "250 to 500"}, {"smiles": "COc1cc(NC(=O)c2cc(=O)c3ccccc3o2)c(C(=O)Nc2ccc(CCN(C)C(=O)c3cccc(-n4ccnc4)c3)cc2)cc1OC", "note": "[Compound 122]", "IC50": "500 to 1000"}, {"smiles": "CCn1ncc2cc(CN(CCc3ccc(NC(=O)c4cc(OC)c(OC)cc4NC(=O)c4cc(=O)c5ccccc5o4)cc3)Cc3cccnc3)ccc21", "note": "[Compound 248]", "IC50": "250 to 500"}, {"smiles": "COc1cc(NC(=O)c2cc(=O)c3ccccc3o2)c(C(=O)Nc2ccc(CCN(Cc3cncc(-c4ccccc4)c3)Cc3ccc4c(cnn4C)c3)cc2)cc1OC", "note": "[Compound 254]", "IC50": "> 1000"}, {"smiles": "COc1cc(NC(=O)c2cnc3ccccc3c2)c(C(=O)Nc2ccc(CCN(Cc3cccc(-n4ccnc4)c3)Cc3ccc4c(cnn4C)c3)cc2)cc1OC", "note": "[Compound 146]", "IC50": "500 to 1000"}, {"smiles": "CCN(CCc1ccc(NC(=O)c2cc(OC)c(OC)cc2NC(=O)c2cc(=O)c3ccccc3o2)cc1)Cc1ccc(O)c(OC)c1", "note": "[Compound 135]", "IC50": "500 to 1000"}, {"smiles": "COc1cc(NC(=O)C2CC(=O)c3ccccc3O2)c(C(=O)Nc2ccc(CCN(C)Cc3ccc(-c4ccncc4)cc3)cc2)cc1OC", "note": "(stereo not shown) [Compound 89]", "IC50": "> 1000"}, {"smiles": "COc1cc(NC(=O)c2cc(=O)c3ccccc3o2)c(C(=O)Nc2ccc(CCN(Cc3cncc(OCCN4CCOCC4)c3)Cc3ccc4c(cnn4C)c3)cc2)cc1OC", "note": "[Compound 240]", "IC50": "250 to 500"}, {"smiles": "COc1cc(NC(=O)c2cc(=O)c3ccccc3o2)c(C(=O)Nc2ccc(CCNCc3cccnc3)cc2)cc1OC", "note": "[Compound 214]", "IC50": "> 1000"}, {"smiles": "COc1cc(NC(=O)c2cc(=O)c3ccccc3o2)c(C(=O)Nc2ccc(CCN(Cc3cccnc3)Cc3ccc4c(c3)nnn4C)cc2)cc1OC", "note": "[Compound 221]", "IC50": "250 to 500"}, {"smiles": "COc1cc(NC(=O)c2cc(=O)c3ccccc3o2)c(C(=O)Nc2ccc(CCN(Cc3ccc4c(cnn4C)c3)Cc3ccc4c(cnn4C)c3)cc2)cc1OC", "note": "[Compound 137]", "IC50": "> 1000"}, {"smiles": "Cn1ncc2cc(CN(CCc3ccc(NC(=O)c4ccc(C(=O)O)cc4NC(=O)c4cc(=O)c5ccccc5o4)cc3)Cc3ccc4c(cnn4C)c3)ccc21", "note": "[Compound 267]", "IC50": "> 1000"}, {"smiles": "COc1cncc(CN(CCc2ccc(NC(=O)c3cc(OC)c(OC)cc3NC(=O)c3cc(=O)c4ccccc4o3)cc2)Cc2ccc3c(c2)nnn3C)c1", "note": "[Compound 220]", "IC50": "100 to 250"}, {"smiles": "COc1cc(NC(=O)c2cc(=O)c3ccccc3o2)c(C(=O)Nc2ccc(CCN(Cc3ccc4c(cnn4C)c3)Cc3cncn3C)cc2)cc1OC", "note": "[Compound 21]", "IC50": "< 100"}, {"smiles": "CCOc1cncc(CN(CCc2ccc(NC(=O)c3cc(OC)c(OC)cc3NC(=O)c3cc(=O)c4cc(C)ccc4o3)cc2)Cc2ccc3c(cnn3C)c2)c1", "note": "[Compound 73]", "IC50": "250 to 500"}, {"smiles": "CCOc1cc(C(=O)Nc2ccc(CCN(C)Cc3ccc4c(cnn4C)c3)cc2)c(NC(=O)c2cc(=O)c3ccccc3o2)cc1OC", "note": "[Compound 111]", "IC50": "> 1000"}, {"smiles": "COc1cc(NC(=O)c2cc(=O)c(O)co2)c(C(=O)Nc2ccc(CCN(C)Cc3cccc(-n4ccnc4)c3)cc2)cc1OC", "note": "[Compound 129]", "IC50": "> 1000"}, {"smiles": "COc1cc(NC(=O)c2cc(=O)c3ccccc3o2)c(C(=O)Nc2ccc(CCN(Cc3cncc(O)c3)Cc3ccc4c(c3)c(C)nn4C)cc2)cc1OC", "note": "[Compound 247]", "IC50": "100 to 250"}, {"smiles": "COc1cncc(CN(CCc2ccc(NC(=O)c3ccc(C(=O)O)cc3NC(=O)c3cc(=O)c4ccccc4o3)cc2)Cc2ccc3c(cnn3C)c2)c1", "note": "[Compound 259]", "IC50": "> 1000"}, {"smiles": "COc1cc(NC(=O)c2cc(=O)c3ccccc3o2)c(C(=O)Nc2ccc(CCN(Cc3cccnc3)Cc3cnc4cnc(Br)cn34)cc2)cc1OC", "note": "[Compound 54]", "IC50": "100 to 250"}, {"smiles": "CCN(CCc1ccc(NC(=O)c2cc(OC)c(OC)cc2NC(=O)c2cc(=O)c3ccccc3o2)cc1)Cc1ccc2c(cnn2C)c1", "note": "[Compound 106]", "IC50": "> 1000"}, {"smiles": "COc1cc(NC(=O)c2cc(=O)c3ccccc3o2)c(C(=O)Nc2ccc(CCN(Cc3ccc(-n4cncn4)cc3)Cc3ccc4c(cnn4C)c3)cc2)cc1OC", "note": "[Compound 142]", "IC50": "> 1000"}, {"smiles": "C#Cc1cccc(CN(C)CCc2ccc(NC(=O)c3cc(OC)c(OC)cc3NC(=O)c3cc(=O)c4ccccc4o3)cc2)c1", "note": "[Compound 116]", "IC50": "> 1000"}, {"smiles": "COc1cncc(CN(CCc2ccc(NC(=O)c3cc(OC)c(OC)cc3NC(=O)c3cc(=O)c4ccccc4o3)cc2)Cc2ccc3c(c2)c(C)nn3C)c1", "note": "[Compound 63]", "IC50": "500 to 1000"}, {"smiles": "COc1cc(NC(=O)c2cnc3ccccc3c2)c(C(=O)Nc2ccc(CCN(Cc3cccc(-n4ccnc4)c3)Cc3ccc4c(c3)c(C)nn4C)cc2)cc1OC", "note": "[Compound 179]", "IC50": "250 to 500"}, {"smiles": "COc1cc(NC(=O)c2cnc3ccccc3n2)c(C(=O)Nc2ccc(CCN(Cc3ccc4c(c3)n(C)c(=O)n4C)Cc3ccc4c(c3)n(C)c(=O)n4C)cc2)cc1OC", "note": "[Compound 169]", "IC50": "> 1000"}, {"smiles": "COc1cc(NC(=O)c2cc(=O)c3ccccc3o2)c(C(=O)Nc2ccc(CCN(Cc3ccc4c(cnn4C)c3)Cc3cccnc3N)cc2)cc1OC", "note": "[Compound 226]", "IC50": "> 1000"}, {"smiles": "COCCOc1cncc(CN(CCc2ccc(NC(=O)c3cc(OC)c(OC)cc3NC(=O)c3cc(=O)c4ccccc4o3)cc2)Cc2ccc3c(c2)c(C)nn3C)c1", "note": "[Compound 65]", "IC50": "100 to 250"}, {"smiles": "COc1cncc(CN(Cc2ccc(CNC(=O)c3cc(OC)c(OC)cc3NC(=O)c3cc(=O)c4ccccc4o3)cc2)Cc2ccc3c(cnn3C)c2)c1", "note": "[Compound 235]", "IC50": "100 to 250"}, {"smiles": "CCc1cn(-c2cccc(CN(C)CCc3ccc(NC(=O)c4cc(OC)c(OC)cc4NC(=O)c4cc(=O)c5ccccc5o4)cc3)c2)cn1", "note": "[Compound 105]", "IC50": "100 to 250"}, {"smiles": "COc1cc(NC(=O)c2cc(=O)c3ccccc3o2)c(C(=O)Nc2ccc(CCN(C)Cc3ccc4c(c3)CCO4)cc2)cc1OC", "note": "[Compound 155]", "IC50": "> 1000"}, {"smiles": "COc1cc(NC(=O)c2cc(=O)c3ccccc3o2)c(C(=O)Nc2ccc(CCN(C)Cc3cccc(-c4nc(C)no4)c3)cc2)cc1OC", "note": "[Compound 157]", "IC50": "> 1000"}, {"smiles": "COc1cc(NC(=O)c2cc(=O)c3ccccc3o2)c(C(=O)NCc2ccc(CN(Cc3cccnc3)Cc3ccc4c(cnn4C)c3)cc2)cc1OC", "note": "[Compound 234]", "IC50": "100 to 250"}, {"smiles": "CCN(CCc1ccc(NC(=O)c2cc(OC)c(OC)cc2NC(=O)c2cc(=O)c3ccccc3o2)cc1)Cc1ccc(OC)c(O)c1", "note": "[Compound 133]", "IC50": "> 1000"}, {"smiles": "COc1cc(NC(=O)c2cc(=O)c3ccccc3o2)c(C(=O)Nc2ccc(CCNCc3cccc(-n4ccnc4)c3)cc2)cc1OC", "note": "[Compound 125]", "IC50": "100 to 250"}, {"smiles": "CCN(CCc1ccc(NC(=O)c2cc(OC)c(OC)cc2NC(=O)c2cc(=O)c3ccccc3o2)cc1)Cc1ccc(-n2cncn2)cc1", "note": "[Compound 20]", "IC50": "100 to 250"}, {"smiles": "CCN(CCc1ccc(NC(=O)c2cc(OC)c(OC)cc2NC(=O)c2cc(=O)c3ccccc3o2)cc1)Cc1ccc2cnn(C)c2c1", "note": "[Compound 164]", "IC50": "> 1000"}, {"smiles": "COc1cncc(CN(CCc2ccc(NC(=O)c3cc(OC)c(OC)cc3NC(=O)c3cc(=O)c4ccccc4o3)cc2)Cc2cnc(-c3ccccc3F)nc2)c1", "note": "[Compound 230]", "IC50": "100 to 250"}, {"smiles": "COc1cc2c(cc1OC)CN(CCc1ccc(NC(=O)c3ccc(C(=O)OCCCn4ccnc4)cc3NC(=O)c3cc(=O)c4ccccc4o3)cc1)CC2", "note": "[Compound 262]", "IC50": "< 100"}, {"smiles": "COc1cc(NC(=O)c2cc(=O)c3ccccc3o2)c(C(=O)Nc2ccc(CCN(Cc3cccc(-n4ccnc4)c3)Cc3ccc4c(cnn4C)c3)cc2)cc1OC", "note": "[Compound 16]", "IC50": "250 to 500"}]}]}
